Results published in US8518883B2, “Method of reducing deleterious effects of ischemia by administration of a thrombopoietin receptor ligand” (MCW Research Foundation, Inc., priority 2006, dated 2013).

System: in vitro rat hearts
Assay: Isolated perfused (Langendorff) rat heart, 25 min global ischemia and 180 min reperfusion: hemodynamics, infarct size, recovery of LVDP
Details: for Effect on the cardioprotective effect of Tpo (infarct size, LVDP recovery): Glibenclamide 3 μM 15 min alone, then with Tpo 1.0 ng/ml 15 min prior to ischemia; for Effect on cardioprotection, drug alone: no Tpo
Procedure: The study was directed to determining whether Tpo (0.01-10.0 ng/ml) confers immediate cardioprotection in rat hearts and the contribution of potassium channels to the underlying mechanism. Hearts from normoxic 8 week old Sprague Dawley rats (n=8/group) were isolated and perfused in the Langendorff mode. Hemodynamic function was recorded under steady-state conditions prior to 25 minutes global no flow ischemia and 180 minutes reperfusion.
Isolated heart perfusion. Isolated rat hearts were perfused with bicarbonate buffer at constant pressure in a retrograde manner and instrumented as described in Baker, et al., Am. J. Physiol. Heart Circulat. Physiol. 278:1395-1400, 2000 potassium channel blockers were added to this perfusate as needed. A 3-way tap, located immediately above the site of cannulation, allowed the entire perfusate to be diverted away from the heart to produce global, no-flow ischemia. Reperfusion was achieved by repositioning of the tap to allow perfusate to be delivered to the heart. Left ventricular function was monitored continuously throughout each experiment as described in Baker, et al., supra, 2000. End-diastolic pressure was initially set to 3 mmHg for 2 minutes. The balloon was then progressively inflated with a microsyringe to set end-diastolic pressures to 8 mmHg for the left ventricle, with developed pressure and heart rate recorded during steady-state conditions. Coronary flow rate was measured throughout the experiment by timed collections of the coronary effluent from the right side of the heart into a graduated cylinder. Coronary flow rate was expressed as milliliters per minute per gram wet weight.
Resistance to myocardial ischemia. Hearts from adult rats were perfused with bicarbonate buffer, and biventricular function was monitored continuously throughout each experiment as described in Baker, et al., supra, 2000. For concentration response studies, hearts were then perfused with Tpo (0.01-10.0 ng/ml) for 15 minutes prior to 25 minutes ischemia and 180 minutes reperfusion. For mechanism studies with potassium channel blockers, hearts were perfused with drugs for 15 minutes alone followed by 15 minutes in combination with Tpo prior to ischemia. Hearts perfused with potassium channel blockers alone in the absence of Tpo for 30 minutes prior to ischemia served as untreated controls for these studies. Recovery of post-ischemic left ventricular developed pressure was expressed as a percentage of its pre-drug, pre-ischemic value.
Assessment of ventricular function. Left ventricular function was monitored continuously throughout each experiment as described in Baker, et al., supra, 2000. Recovery of left ventricular pressure following ischemia was used to assess resistance to ischemia.
Measurement of infarct size/area at risk at 3 hours reperfusion were used to assess resistance to myocardial ischemia. For characterization of infarction size, hearts were perfused with 10 ml bicarbonate buffer containing triphenyltetrazolium chloride (SIGMA) at 37° C.
The heart was sectioned in 2 mm segments from apex to atrio-ventricular groove in a transverse fashion. Each segment was recorded and placed in formalin. After twenty-four (24) hours, the specimen was digitally photographed in a camera mount to normalize specimen-to-lens distance. Each photograph was then appended to Adobe Photoshop (Adobe™) to measure pixel density of infarcted versus non-infarcted areas. The percentage of infarction of each slide was expressed as a percentage of the entire area of the heart.
Hearts from male Sprague Dawley rats at 8 weeks of age were isolated and perfused with Tpo at 0.01, 0.1, 1.0, and 10 ng/ml for 15 minutes prior to 25 minutes global ischemia and 180 minutes reperfusion (FIG. 2). Tpo (1.0 ng/ml) reduced coronary flow rate prior to ischemia from 6±1 ml/min/g to 5±1 ml/min/g, increased left ventricular developed pressure from 119±15 mmHg to 151±19 mmHg and decreased heart rate from 240±34 beats/minute to 228±17 beats/minute. […]

Row | SMILES | Effect on the cardioprotective effect of Tpo (infarct size, LVDP recovery) | Effect on the cardioprotective effect of Tpo (infarct size, LVDP recovery) (listed as glibenclamide) | Effect on cardioprotection, drug alone (Glibenclamide 3 μM alone) | Effect on cardioprotection, drug alone (Wortmannin 100 nM alone)
1 | COc1ccc(Cl)cc1C(=O)NCCc1ccc(S(=O)(=O)NC(=O)NC2CCCCC2)cc1 [Glibenclamide, reference compound] | completely abolished | completely prevented | no effect | –
2 | COC[C@H]1OC(=O)c2coc3c2[C@@]1(C)C1=C(C3=O)[C@@H]2CCC(=O)[C@@]2(C)C[C@H]1OC(C)=O [Wortmannin, reference compound] | – | – | – | no effect
